{"source": "patent US8354569B2", "about": "“Plant acyltransferases specific for long-chained, multiply unsaturated fatty acids” (University of Bristol, priority 2003, dated 2013)", "key": {"[1]": {"test_system": "Shewanella LPAAT", "experiment": "Functional expression of Shewanella LPAAT in E. coli, enzyme assays", "assay_type": "biochemical, Shewanella hanedai", "conditions": "expressed at 10° C. in E. coli BL21, with or without His-tag; 30 μM thioester", "excerpt": "To clone an LPAAT gene from the prokaryotic organism Shewanella, the genomic DNA from Shewanella hanedai was isolated, partially digested with Sau3a and ligated into the vector pUC18. This genomic library was screened for LPAAT genes by a PCR using different primer combinations. This method has made it possible to identify a 1486 by clone whose open reading frame codes for a 25.2 kDa LPAAT protein. The ShLPAAT sequence was introduced into the vector pQE70 (Qiagen) in accordance with the manufacturer's instructions. The resulting plasmids pQE70-Sh and pQE70-ShHis and the blank vector pQE70 were transformed into E. coli BL21 cells and expressed at 10° C. (FIG. 22A). Active protein was obtained at this temperature only (FIG. 22B). The membrane fractions were used for this purpose in the further experiments. […] The high incorporation rate with regard to PUFA acyl-CoA residues is required for the use for the production of PUFA.\nThe assays were carried out with extracts (1 μg) from E. coli comprising the blank vector (pQE70) or a Shewanella construct without (pQE-Sh) or with His-Tag sequence at the 3′ end (pQE-ShHis) in the presence of 30 μM 1-oleoyl[U-14C]glycerol-3-phosphate and 30 μM of the detailed thioesters."}, "[2]": {"test_system": "Thraustochytrium LPAAT", "experiment": "Acyl-CoA specificity of Thraustochytrium LPAAT expressed as GST fusion protein in E. coli", "assay_type": "biochemical", "conditions": "0.4 μg soluble protein fraction, 30 μM 1-oleoyl[U-14C]glycerol-3-phosphate, increasing thioester concentrations", "excerpt": "The PCR product was transferred into the vector pDONOR221 by Gateway reaction (BP reaction; Invitrogen) following the manufacturer's instructions, and the sequence was verified by sequencing. In a next step, the ThLPAAT sequence was then transferred into the vector pDES15 by the LR reaction and employed for expression in E. coli BL21 cells. The ThLPAAT sequence was attached to the open reading frame of the glutathione-S transferase (GST) encoded in the plasmid, in accordance with the manufacturer's instructions. This gave rise to a fusion protein of GST and ThLPAAT.\nExpressed protein was detected after expression under standard conditions in E. coli (FIG. 21A) and purified via a glutathione column.\nThe enzyme assays were determined using 0.4 μg of soluble protein fraction in the presence of 100 mM Tricine-NaOH (pH 8.2), 30 μM 1-oleoyl[U-^14C]glycerol-3-phosphate and increasing concentrations of the thioesters detailed."}}, "data": [{"compound": "CC/C=C\\C/C=C\\C/C=C\\C/C=C\\C/C=C\\C/C=C\\CCC(=O)SCCNC(=O)CCNC(=O)[C@H](O)C(C)(C)COP(=O)(O)OP(=O)(O)OC[C@H]1O[C@@H](n2cnc3c(N)ncnc32)[C@H](O)[C@@H]1OP(=O)(O)O", "note": "[DHA-CoA]", "values": [{"measurement": "Incorporation activity of the membrane fraction", "setting": "[1]", "value": "high level of activity"}, {"measurement": "LPAAT activity of the purified GST fusion protein by acyl-CoA", "setting": "[2]", "value": "highest activity"}]}]}
